Measured values published in US11124513B2, “Avibactam free acid” (Sandoz AG, priority 2016, dated 2021).
Where a name gives a salt, the structure may show the parent alone.

What was measured:
[1] = Thermogravimetric analysis; assay type: physicochemical; settings: up to a temperature of about 130° C.; 10 K/min; crystalline Form 1 (FIG. 4)
Method: Thermogravimetric analysis (TGA) was performed on a Mettler TGA/DSC 1 instrument. The sample (6.30 mg) was heated in a 100 microL aluminum pan closed with an aluminum lid. The lid was automatically pierced at the beginning of the measurement. The sample was heated from 25 to 200° C. at a rate of 10 K/min. Nitrogen (purge rate 50 mL/min) was used as purge gas.

[2] = Differential scanning calorimetry; assay type: physicochemical; settings: 10 K/min; crystalline Form 1 (FIG. 3)
Method: Differential scanning calorimetry was performed on a Mettler Toledo Polymer DSC R instrument. The sample (1.27 mg) was heated in a 40 microL aluminium pan with pierced aluminium lid from 25 to 160° C. at a rate of 10 K/min. Nitrogen (purge rate 50 mL/min) was used as purge gas.

[3] = Stability against temperature stress (dehydration, form conversion); assay type: physicochemical
[4] = system: bacteria; settings: at clinically relevant doses; reported; cited from earlier work
[5] = Stability against moisture / hygroscopicity
[6] = stated in WO 2011/042560 A1; cited from earlier work
[7] = stated in WO 2011/042560 A1 (page 17); cited from earlier work

Row | SMILES | weight loss, thermogravimetric analysis [1] | temperature up to which no thermal event is seen in the differential scanning calorimetry curve [2] | behaviour under temperature stress [3] | antibacterial activity of its own [4] | hygroscopicity [5] | stability against moisture ([5]; increased relative humidity levels) | temperature above which the form dehydrates (to monohydrate form A) ([3]; temperature stress) | relative humidity above which the form is particularly stable [6] [%] | tendency to lose water and hydrolyze [7]
1 | NC(=O)[C@@H]1CC[C@@H]2CN1C(=O)N2OS(=O)(=O)O [avibactam free acid, [(2S,5R)-2-carbamoyl-7-oxo-1,6-diazabicylco[3.2.1]octan-6-yl] hydrogen sulfate] | about 0.3 weight % | at least 130 °C | very stable against temperature stress | no antibacterial activity at clinically relevant doses | low hygroscopicity | very stable against moisture |  |  | 
2 | NC(=O)[C@@H]1CC[C@@H]2CN1C(=O)N2OS(=O)(=O)[O-].O.O.[Na+] [form E] |  |  |  |  |  |  | above 60 °C | > 70 | tends to lose water and to hydrolyze
3 | NC(=O)C1CCC2CN1C(=O)N2OS(=O)(=O)[O-].O.[Na+] (stereo not shown) [form A] |  |  | dehydrates to the anhydrous form B |  |  |  |  |  | 
